Results: patent publication US20260158009A1 (GENZYME CORPORATION, priority 2023, published 2026)

Legend:
[1] = biological target: T1, hRIPK1 (aa 1-375) fusion protein (Homo sapiens, UniProt Q13546); test: ADP-Glo kinase assay: catalytic activity of RIPK1 (autophosphorylation, conversion of ATP to ADP); type: biochemical
T1 construct: hRIPK1 (aa 1-375) fusion protein
T1 sequence (Q13546 1-375): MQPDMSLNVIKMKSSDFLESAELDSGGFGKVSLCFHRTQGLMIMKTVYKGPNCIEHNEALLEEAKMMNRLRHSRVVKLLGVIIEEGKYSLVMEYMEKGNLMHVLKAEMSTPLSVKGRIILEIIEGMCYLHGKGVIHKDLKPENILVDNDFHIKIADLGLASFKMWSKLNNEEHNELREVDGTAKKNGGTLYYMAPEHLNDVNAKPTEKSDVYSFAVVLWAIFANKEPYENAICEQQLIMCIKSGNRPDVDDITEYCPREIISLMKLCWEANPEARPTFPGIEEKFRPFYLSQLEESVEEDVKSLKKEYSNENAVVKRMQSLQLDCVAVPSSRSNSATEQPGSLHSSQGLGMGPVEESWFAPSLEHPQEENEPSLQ
Method in brief: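 The readout was ADP-Glo luminescence after a 240 min rt autophosphorylation reaction with 50 μM ATP, following 30 min preincubation of 3.6 μg/ml hRIPK1 (aa 1-375) fusion with compound at 33300-1.69 nM final in 1% DMSO. Values came from Levenberg-Marquardt nonlinear fits.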

U937 cells = test: Cellular assay in U937 cells: activity of RIPK1 inhibitors on TNFα/zVAD.fmk-induced cell death (necroptosis), CellTiter 96 AQueous (MTS) readout; type: cell-based; settings: Homo sapiens, U-937
Method in brief: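 Necroptosis was measured by viable-cell MTS reduction (4 h, absorbance 490 nm) after overnight (18–24 h) 37° C culture. Cell suspensions of U937 cells carried TNFα (100 ng/ml) plus zVAD.fmk (50 μM) before compound was added. A 10-point curve (10 μM–0.26 nM or 1 μM–0.07 nM) was run in duplicate, normalised to the control lacking TNFα/zVAD.fmk.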

Row | SMILES | IC50 [1] | IC50 (U937 cells)
1 | N#Cc1cc(F)cc([C@@H]2CCON2C(=O)[C@H]2CC[C@H](Cc3ccc(C4(O)COC4)cc3)CC2)c1 [compound 169, trans-3-fluoro-5-[(3S)-2-[4-[[4-(3-hydroxyoxetan-3-yl)phenyl]methyl]cyclohexanecarbonyl]isoxazolidin-3-yl]benzonitrile] | 19 nM | 44 nM
2 | O=C([C@H]1CC[C@H](Cc2ccc(C3(O)COC3)cc2)CC1)N1OCC[C@H]1c1ccc(F)cc1 [compound 170, trans-[(3S)-3-(4-fluorophenyl)isoxazolidin-2-yl]-[4-[[4-(3-hydroxyoxetan-3-yl)phenyl]methyl]cyclohexyl]methanone] | 21 nM | 15 nM
3 | O=C([C@H]1CC[C@H](Cc2ccc(C3(O)COC3)cc2)CC1)N1OCC[C@H]1c1cc(F)cc(F)c1 [compound 171, trans-[(3S)-3-(3,5-difluorophenyl)isoxazolidin-2-yl]-[4-[[4-(3-hydroxyoxetan-3-yl)phenyl]methyl]cyclohexyl]methanone] | 19 nM | 6 nM
4 | CNC(=O)c1ccc(F)c(C[C@H]2CC[C@H](C(=O)N3OCC[C@H]3c3cncc(F)c3)CC2)c1 [compound 172, trans-4-fluoro-3-[[4-[(3S)-3-(5-fluoro-3-pyridyl)isoxazolidine-2-carbonyl]cyclohexyl]methyl]-N-methyl-benzamide] | 16 nM | 9 nM
5 | CNC(=O)c1ccc(F)c(C[C@H]2CC[C@H](C(=O)N3OCC[C@H]3c3ccc(F)cc3)CC2)c1 [compound 173, trans-4-fluoro-3-[[4-[(3S)-3-(4-fluorophenyl)isoxazolidine-2-carbonyl]cyclohexyl]methyl]-N-methyl-benzamide] | 18 nM | 17 nM
6 | CNC(=O)c1ccc(F)c(C[C@H]2CC[C@H](C(=O)N3OCC[C@H]3c3cc(F)cc(F)c3)CC2)c1 [compound 174, trans-3-[[4-[(3S)-3-(3,5-difluorophenyl)isoxazolidine-2-carbonyl]cyclohexyl]methyl]-4-fluoro-N-methyl-benzamide] | 19 nM | 4 nM
7 | CNC(=O)c1ccc(F)c(C[C@H]2CC[C@H](C(=O)N3OCC[C@H]3c3cnccn3)CC2)c1 [compound 175, trans-4-fluoro-N-methyl-3-[[4-[(3S)-3-pyrazin-2-ylisoxazolidine-2-carbonyl]cyclohexyl]methyl]benzamide] | 14 nM | 7 nM
8 | CNC(=O)c1ccc(F)c(C[C@H]2CC[C@H](C(=O)N3OCC[C@H]3c3cncc(C#N)c3)CC2)c1 [compound 176, trans-3-[[4-[(3S)-3-(5-cyano-3-pyridyl)isoxazolidine-2-carbonyl]cyclohexyl]methyl]-4-fluoro-N-methyl-benzamide] | 13 nM | 15 nM
9 | CNC(=O)c1ccc(F)c(C[C@H]2CC[C@H](C(=O)N3OCC[C@H]3c3cc(F)cc(C#N)c3)CC2)c1 [compound 177, trans-3-[[4-[(3S)-3-(3-cyano-5-fluoro-phenyl)isoxazolidine-2-carbonyl]cyclohexyl]methyl]-4-fluoro-N-methyl-benzamide] | 11 nM | 5 nM
10 | Cc1ncc(F)cc1C[C@H]1CC[C@H](C(=O)N2OCC[C@H]2c2cncc(F)c2)CC1 [compound 178, trans-[4-[(5-fluoro-2-methyl-3-pyridyl)methyl]cyclohexyl]-[(3S)-3-(5-fluoro-3-pyridyl)isoxazolidin-2-yl]methanone] | 38 nM | 6 nM
11 | Cc1ncc(F)cc1C[C@H]1CC[C@H](C(=O)N2OCC[C@H]2c2ccc(F)cc2)CC1 [compound 179, trans-[4-[(5-fluoro-2-methyl-3-pyridyl)methyl]cyclohexyl]-[(3S)-3-(4-fluorophenyl)isoxazolidin-2-yl]methanone] | 32 nM | 5 nM
12 | Cc1ncc(F)cc1C[C@H]1CC[C@H](C(=O)N2OCC[C@H]2c2cnccn2)CC1 [compound 180, trans-[4-[(5-fluoro-2-methyl-3-pyridyl)methyl]cyclohexyl]-[(3S)-3-pyrazin-2-ylisoxazolidin-2-yl]methanone] | 32 nM | 11 nM
13 | Cc1ncc(F)cc1C[C@H]1CC[C@H](C(=O)N2OCC[C@H]2c2cc(F)cc(C#N)c2)CC1 [compound 181, trans-3-fluoro-5-[(3S)-2-[4-[(5-fluoro-2-methyl-3-pyridyl)methyl]cyclohexanecarbonyl]isoxazolidin-3-yl]benzonitrile] | 26 nM | 2 nM
14 | Cc1ncc(F)cc1C[C@H]1CC[C@H](C(=O)N2OCC[C@H]2c2cc(F)cc(F)c2)CC1 [compound 182, trans-[(3S)-3-(3,5-difluorophenyl)isoxazolidin-2-yl]-[4-[(5-fluoro-2-methyl-3-pyridyl)methyl]cyclohexyl]methanone] | 22 nM | 1 nM
15 | N#Cc1cncc([C@@H]2CCON2C(=O)[C@H]2CC[C@H](Cc3ccc(C4(O)COC4)cc3)CC2)c1 [compound 183, trans-5-[(3S)-2-[4-[[4-(3-hydroxyoxetan-3-yl)phenyl]methyl]cyclohexanecarbonyl]isoxazolidin-3-yl]pyridine-3-carbonitrile] | 45 nM | 23 nM
16 | CC1(Oc2cnc3ccn(C[C@H]4CC[C@H](C(=O)N5OCC[C@H]5c5cc(F)cc(C#N)c5)CC4)c3c2)CC1 [compound 184, trans-3-fluoro-5-[(3S)-2-[4-[[6-(1-methylcyclopropoxy)pyrrolo[3,2-b]pyridin-1-yl]methyl]cyclohexanecarbonyl]isoxazolidin-3-yl]benzonitrile] | 26 nM | 19 nM
17 | COc1cncc([C@@H]2CCON2C(=O)[C@H]2CC[C@H](Cn3ccc4ncc(C#N)cc43)CC2)n1 [compound 185, trans-1-[[4-[(3S)-3-(6-methoxypyrazin-2-yl)isoxazolidine-2-carbonyl]cyclohexyl]methyl]pyrrolo[3,2-b]pyridine-6-carbonitrile] | 32 nM | 34 nM
18 | COc1cncc([C@@H]2CCON2C(=O)[C@H]2CC[C@H](Cn3ncc4ncc(C#N)cc43)CC2)n1 [compound 186, trans-1-[[4-[(3S)-3-(6-methoxypyrazin-2-yl)isoxazolidine-2-carbonyl]cyclohexyl]methyl]pyrazolo[4,3-b]pyridine-6-carbonitrile] | 23 nM | 39 nM
19 | N#Cc1cnc2cnn(C[C@H]3CC[C@H](C(=O)N4OCC[C@H]4c4ccccn4)CC3)c2c1 [compound 187, trans-1-[[4-[(3S)-3-(2-pyridyl)isoxazolidine-2-carbonyl]cyclohexyl]methyl]pyrazolo[4,3-b]pyridine-6-carbonitrile] | 51 nM | 121 nM
20 | N#Cc1cnc2ccn(C[C@H]3CC[C@H](C(=O)N4OCC[C@H]4c4ccccn4)CC3)c2c1 [compound 188, trans-1-[[4-[(3S)-3-(2-pyridyl)isoxazolidine-2-carbonyl]cyclohexyl]methyl]pyrrolo[3,2-b]pyridine-6-carbonitrile] | 37 nM | 124 nM
21 | COc1cncc([C@@H]2CCON2C(=O)[C@H]2CC[C@H](Cn3cc4ccc(C#N)cc4n3)CC2)n1 [compound 189, trans-2-[[4-[(3S)-3-(6-methoxypyrazin-2-yl)isoxazolidine-2-carbonyl]cyclohexyl]methyl]indazole-6-carbonitrile] | 138 nM | 623 nM
22 | COc1cncc([C@@H]2CCON2C(=O)[C@H]2CC[C@H](Cn3ncc4ccc(C#N)cc43)CC2)n1 [compound 190, trans-1-[[4-[(3S)-3-(6-methoxypyrazin-2-yl)isoxazolidine-2-carbonyl]cyclohexyl]methyl]indazole-6-carbonitrile] | 13 nM | 4 nM
23 | NC(=O)c1cc(C[C@H]2CC[C@H](C(=O)N3OCC[C@H]3c3ccc(F)cc3)CC2)ccc1F [compound 191, trans-2-fluoro-5-[[4-[(3S)-3-(4-fluorophenyl)isoxazolidine-2-carbonyl]cyclohexyl]methyl]benzamide] | 10 nM | 9 nM
24 | NC(=O)c1cc(C[C@H]2CC[C@H](C(=O)N3OCC[C@H]3c3cc(F)cc(F)c3)CC2)ccc1F [compound 192, trans-5-[[4-[(3S)-3-(3,5-difluorophenyl)isoxazolidine-2-carbonyl]cyclohexyl]methyl]-2-fluoro-benzamide] | 5 nM | 3 nM
25 | NC(=O)c1cc(C[C@H]2CC[C@H](C(=O)N3OCC[C@H]3c3cnccn3)CC2)ccc1F [compound 193, trans-2-fluoro-5-[[4-[(3S)-3-pyrazin-2-ylisoxazolidine-2-carbonyl]cyclohexyl]methyl]benzamide] | 10 nM | 14 nM
26 | N#Cc1cncc([C@@H]2CCON2C(=O)[C@H]2CC[C@H](Cc3ccc(F)c(C(N)=O)c3)CC2)c1 [compound 194, trans-5-[[4-[(3S)-3-(5-cyano-3-pyridyl)isoxazolidine-2-carbonyl]cyclohexyl]methyl]-2-fluoro-benzamide] | 21 nM | 10 nM
